“And” between values parts separate entries of the source, which are not always exact repeats. Equal entries are not always repeated.
Assays:
[1] = test system: urease; format: biochemical
[2] = test system: rye grass; assay: Pot experiments with rye grass, urea as soil fertilizer with various urease inhibitors (Table 6); format: in vivo; details: urea four times 1.0 g N/pot; inhibitor 2% of the urea quantity; loamy sand pH 5.6
Source text: (§1) The results of the tests in Mitscherlich pots are compiled in Tables 6 and 7.
In Table 6 the various urease inhibitors as urea additives for soil fertilization are compared with one another. Both in overall crop yield as well as in N absorption and in raw protein content, the best results are achieved with bromo-nitro compounds. The maleic derivatives and the quinone product furnish poorer results.
(§2) The mixtures according to the invention used for the experiments of these tables were produced by powdering the urea prills with said bromo-nitro compounds; optionally, the prills can be sprayed before powdering with a hydrocarbon oil to improve adhesion. The bromo-nitro compounds soluble in liquid fertilizers containing urea pose no problems of distribution in dissolved fertilizers containing urea. In the case of slightly soluble bromo-nitro compounds, stirring must occur during the distribution. Optionally, solutizing agents can be added.

[3] = test system: rye grass; assay: Pot tests for rye grass, urea as soil fertilizer optionally with 2% urease inhibitors, compared with KAS (Table 7); format: in vivo; details: for N Absorption / Raw Protein % of Dry Subst / Dry Substance: 2% inhibitor where added; for Dry Substance: 5 cuttings
Experimental: as §1
In the experiments in Table 7 on rye grass, urea, with and without urease inhibitors, used as a soil fertilizer in application amounts between 0.5 and 1.0 g N/pot, was tested in comparison with KAS. As a product from the maleinimide group, Substance 64 from Table 1, i.e. N-methylmaleinimide was added; from the bromo-nitro compounds, Substance 1 of Table 2, bromo-2-nitropropyl-N-methylcarbamate was added. […] The yield of dry solids scarcely increases as the application of fertilizer increases from 0.75 to 1.0 g N both with urea fertilization alone as well as with the addition of a maleinimide compound.
as §2

[4] = test system: spring wheat, sirocco type; assay: Pot tests with spring wheat, urea or AUS as leaf fertilizer with urease inhibitor (Table 8); format: in vivo
Source text: (In the case of the test series with AUS and urea, equal quantities of N were used. The quantities of the urease inhibitors used were increased in the same way in both test series. If, however, the inhibitor material is related to the use of urea-N, this means that in the case of AUS double the quantity comes into play.)

[5] = test system: rats; details: oral ingestion by rats; cited from earlier work
[6] = Critical relative humidity (water activity) of fertilizer solutions; format: physicochemical; details: 50% urea solution as for 100% salts; between 10° and 30° C.
[7] = AUS leaf fertilizer, inhibitor quantity 4 per 100 g urea-N
[8] = AUS leaf fertilizer, inhibitor quantity 8 per 100 g urea-N
[9] = urea solution leaf fertilizer, inhibitor quantity 2 per 100 g urea-N
[10] = urea solution leaf fertilizer, inhibitor quantity 4 per 100 g urea-N

CNC(=O)OCC(C)(Br)[N+](=O)[O-] (centres unmarked) [Subst. 1-Tab. 3, 2-Bromo-2-nitro-propyl-N--methylcarbamate]
N losses of the soil through NH3 volatilization as % of the urea-N quantities used [1]: 0.3% and 0.0% | N losses of the soil through NH3 volatilization calculated as % of the urea-N quantities used [1]: 0.0% and 1.2% and 0.1% | Dry Substance 1st-5th Cutting [2]: 131.7 g/Pot | N-absorption [2]: 3.29 g/Pot | Raw Protein % in Dry Substance [2]: 15.6% | N Absorption ([3]; N fertilization 0.5 g N/pot): 1432 mg/Pot | Raw Protein % of Dry Subst ([3]; N fertilization 0.5 g N/pot): 12.62% | Dry Substance ([3]; N fertilization 0.5 g N/pot): 70.9 g/Pot | N Absorption ([3]; N fertilization 0.75 g N/pot): 2095 mg/Pot | Raw Protein % of Dry Subst ([3]; N fertilization 0.75 g N/pot): 16.43% | Dry Substance ([3]; N fertilization 0.75 g N/pot): 79.7 g/Pot | N Absorption ([3]; N fertilization 1.0 g N/pot): 2720 mg/Pot | Raw Protein % of Dry Subst ([3]; N fertilization 1.0 g N/pot): 19.68% | Dry Substance ([3]; N fertilization 1.0 g N/pot): 86.4 g/Pot | comparison of fertilizer combinations (in words) ([3]; urea + 2% inhibitor): superior to the corresponding mixture with 2% of a maleinimide compound | Dry Substance [4, 7]: 68.68 g/pot | N Absorption [4, 7]: 1058 mg/pot | Raw Protein [4, 7]: 9.63% | Dry Substance [4, 8]: 68.69 g/pot | N Absorption [4, 8]: 1051 mg/pot | Raw Protein [4, 8]: 9.56% | Dry Substance [4, 9]: 65.11 g/pot | N Absorption [4, 9]: 951 mg/pot | Raw Protein [4, 9]: 9.13% | Dry Substance [4, 10]: 68.36 g/pot | N Absorption [4, 10]: 1046 mg/pot | Raw Protein [4, 10]: 9.56%

CCC(Br)(COC(=O)NC)[N+](=O)[O-] (centres unmarked) [Subst. 2-Tab. 3, 2-Bromo-2-nitro-butyl-N--methylcarbamate]
N losses of the soil through NH3 volatilization as % of the urea-N quantities used [1]: 0.5% and 0.0%

O=[N+]([O-])C(Br)(CO)CO [Subst. 3-Tab. 3, 2-Bromo-2-nitro-propan-1,3-diol]
N losses of the soil through NH3 volatilization as % of the urea-N quantities used [1]: 0.9% and 0.0% | N losses of the soil through NH3 volatilization calculated as % of the urea-N quantities used [1]: 0.0% and 0.5% | Dry Substance 1st-5th Cutting [2]: 128.6 g/Pot | N-absorption [2]: 3.15 g/Pot | Raw Protein % in Dry Substance [2]: 15.3% | LD50 [5]: 400 mg/kg

CC(Br)(CO)[N+](=O)[O-] (centres unmarked) [Subst. 4-Tab. 3, 2-Bromo-2-nitro-propanol]
N losses of the soil through NH3 volatilization as % of the urea-N quantities used [1]: 2.1% and 0.0% | Dry Substance 1st-5th Cutting [2]: 127.8 g/Pot | N-absorption [2]: 3.09 g/Pot | Raw Protein % in Dry Substance [2]: 15.1%

CC(C)(C)C(O)C(Br)[N+](=O)[O-] (centres unmarked) [Subst. 5-Tab. 3, 1-Bromo-1-nitro-3,3.dimethyl-butane-2-ol]
N losses of the soil through NH3 volatilization as % of the urea-N quantities used [1]: 4.7% and 0.0%

CCCC(O)C(Br)[N+](=O)[O-] (centres unmarked) [Subst. 6-Tab. 3, 1-Bromo-1-nitro-pentanol-2]
N losses of the soil through NH3 volatilization as % of the urea-N quantities used [1]: 6.5% and 0.0%

CCC(O)C(Br)[N+](=O)[O-] (centres unmarked) [Subst. 7-Tab. 3, 1-Bromo-1-nitro-butanol-2]
N losses of the soil through NH3 volatilization as % of the urea-N quantities used [1]: 8.3% and 0.0%

CC(C)C(O)C(Br)[N+](=O)[O-] (centres unmarked) [Subst. 8-Tab. 3, 1-Bromo-1-nitro-3-methyl-butane-2-ol]
N losses of the soil through NH3 volatilization as % of the urea-N quantities used [1]: 10.0% and 0.1%

CC(O)C(Br)[N+](=O)[O-] (centres unmarked) [Subst. 11-Tab. 3, 1-Bromo-1-nitro-propanol-2]
N losses of the soil through NH3 volatilization as % of the urea-N quantities used [1]: 2.3%

O=C1C2C3C=CC(C3)C2C(=O)N1SC(Cl)(Cl)Cl (centres unmarked) [Subst. 23-Tab. 2, reference compound]
urease inhibitor effect (in words) [1]: No outstanding inhibitor effect

O=C1C=CC(=O)C=C1 [Subst. 31-Tab. 1, 1,4-Benzoquinone]
Dry Substance 1st-5th Cutting [2]: 118.3 g/Pot | N-absorption [2]: 2.54 g/Pot | Raw Protein % in Dry Substance [2]: 13.4%

CC(=O)OCN1C(=O)C=CC1=O [Subst. 48-Tab. 1, N--Acetoximethylmaleinimide]
urease inhibitor effect (in words) [1]: best inhibitor effects | Dry Substance 1st-5th Cutting [2]: 129.7 g/Pot | N-absorption [2]: 2.85 g/Pot | Raw Protein % in Dry Substance [2]: 13.7%

CCN1C(=O)C=CC1=O [Subst. 56-Tab. 1, N--Ethylmaleinimide, reference compound]
urease inhibitor effect (in words) [1]: best inhibitor effects

O=C1C=CC(=O)N1 [Subst. 61-Tab. 1, Maleinimide, reference compound]
urease inhibitor effect (in words) [1]: best inhibitor effects

CN1C(=O)C=CC1=O [Subst. 64-Tab. 1, N--Methylmaleinimide, reference compound]
urease inhibitor effect (in words) [1]: best inhibitor effects | N Absorption ([3]; N fertilization 0.5 g N/pot): 1285 mg/Pot | Raw Protein % of Dry Subst ([3]; N fertilization 0.5 g N/pot): 11.66% | N Absorption ([3]; N fertilization 0.75 g N/pot): 1676 mg/Pot | Raw Protein % of Dry Subst ([3]; N fertilization 0.75 g N/pot): 12.82% | N Absorption ([3]; N fertilization 1.0 g N/pot): 1944 mg/Pot | Raw Protein % of Dry Subst ([3]; N fertilization 1.0 g N/pot): 14.84%

O=C1C=CC(=O)N1CO [Subst. 66-Tab. 1, N--Methylolmaleinimide]
urease inhibitor effect (in words) [1]: best inhibitor effects | Dry Substance 1st-5th Cutting [2]: 125.0 g/Pot | N-absorption [2]: 2.85 g/Pot | Raw Protein % in Dry Substance [2]: 14.3%

O=C(Nc1ccccc1)OCN1C(=O)C=CC1=O [Subst. 68-Tab. 1, N--Methylolmaleinimide phenyl urethane]
Dry Substance 1st-5th Cutting [2]: 124.0 g/Pot | N-absorption [2]: 2.83 g/Pot | Raw Protein % in Dry Substance [2]: 14.3%

NC(N)=O [urea]
CRH value (critical relative humidity) [6]: 75-76%

Source: patent publication US4576625A, “Fertilizers containing urea with urease inhibitors” (Huls Aktiengesellschaft, priority 1983, dated 1986)
